Values quoted from earlier work in patent US6689399B1, “Transdermal delivery of an anti-inflammatory composition” (priority 2000, dated 2004).

Key:
[1] = single trial, 0.075% capsaicin cream four times daily for six weeks; 5/13; placebo 10%
[2] = four trials, 0.075% capsaicin cream four times daily for 4-8 weeks; placebo 49%
[3] = three trials, capsaicin cream (two 0.025%, one 0.075%) four times daily for four weeks; placebo 16%
[4] = single trial, 0.075% capsaicin cream three or four times daily for three weeks; 4/16; placebo 6%
[5] = four trials, 0.025% capsaicin cream four times daily for 6-8 weeks; placebo 42%

Question: Which “patients reporting pain relief, postmastectomy pain” value [1] does the source give for `COc1cc(CNC(=O)CCCC/C=C/C(C)C)ccc1O` [capsaicin, trans-8-methyl-N-vanillyl-6-nonenamide] here?
Answer: The value was 38%.

Question: And the “patients responding to capsaicin, diabetic neuropathy” value [2]?
Answer: Its value is 73%.

Question: And the “patients responding to capsaicin, osteoarthritis” value [3]?
Answer: Its value is 45%.

Question: What about the “patients reporting pain relief, postherpetic neuralgia” value [4] of the same compound?
Answer: The value was 25%.

Question: And the “patients responding to capsaicin, psoriasis” value [5]?
Answer: The value was 68%.
